Data: ChEMBL document CHEMBL1128244, “Synthesis, structure-activity relationships, and pharmacological evaluation of pyrrolo[3,2,1-ij]quinoline derivatives: potent histamine and platelet activating factor antagonism and 5-lipoxygenase inhibitory properties. Potential therapeutic application in asthma” (J Med Chem, 1995)
Calls of active or inactive are those of the source. No cut-off for these calls is given here.

Assays:
[1] = species on record: Oryctolagus cuniculus; assay: Test against PAF-induced aggregation of rabbit platelets in vitro; assay type: functional
[2] = species on record: Cavia porcellus; assay: Ability to inhibit histamine-induced contractions of isolated guinea pig ileum; assay type: functional
[3] = species on record: Rattus norvegicus; assay: Inhibition of cutaneous histamine reaction in rats.; assay type: functional
[4] = target: T1, Polyunsaturated fatty acid 5-lipoxygenase (Homo sapiens) (UniProt P09917); assay: (§1) Inhibitory activity uM; conditions: Cavia porcellus; concentration not given here
T1 sequence (whole entry): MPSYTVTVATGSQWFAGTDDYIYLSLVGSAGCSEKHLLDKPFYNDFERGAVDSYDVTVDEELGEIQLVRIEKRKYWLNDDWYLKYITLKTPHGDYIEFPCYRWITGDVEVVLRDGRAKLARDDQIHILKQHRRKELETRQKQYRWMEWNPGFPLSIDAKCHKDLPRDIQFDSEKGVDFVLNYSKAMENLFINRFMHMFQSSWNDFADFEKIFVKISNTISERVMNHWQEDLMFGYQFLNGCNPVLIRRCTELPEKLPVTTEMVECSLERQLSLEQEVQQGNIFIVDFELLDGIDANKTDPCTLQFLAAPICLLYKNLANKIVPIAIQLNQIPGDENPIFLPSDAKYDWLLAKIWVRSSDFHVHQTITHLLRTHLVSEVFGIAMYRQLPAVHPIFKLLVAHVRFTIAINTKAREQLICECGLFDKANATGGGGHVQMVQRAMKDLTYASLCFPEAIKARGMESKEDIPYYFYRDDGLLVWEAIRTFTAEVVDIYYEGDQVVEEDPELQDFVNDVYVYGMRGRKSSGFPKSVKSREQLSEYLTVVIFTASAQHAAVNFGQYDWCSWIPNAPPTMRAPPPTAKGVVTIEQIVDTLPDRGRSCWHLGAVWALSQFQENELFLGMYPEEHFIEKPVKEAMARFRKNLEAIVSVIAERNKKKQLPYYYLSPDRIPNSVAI

[5] = tested on: Cavia porcellus; assay: Ability to inhibit histamine phase of antigen-induced bronchoconstriction in vivo in pulmonary function assays in which Guinea pigs were dosed orally 5 hours prior to test at 10 uM/kg; Not active; assay type: functional, organism-based
[6] = species on record: Cavia porcellus; assay: Ability to inhibit histamine-induced contractions of isolated guinea pig ileum at 10e-5 M; assay type: functional
[7] = target: T1, Polyunsaturated fatty acid 5-lipoxygenase (Homo sapiens); assay: Inhibitory activity against partially-purified Guinea pig PMN 5-lipoxygenase at 10 uM; conditions: Cavia porcellus, target entry is the homologue from another species
[8] = target: T1, Polyunsaturated fatty acid 5-lipoxygenase (Homo sapiens); assay: as §1; assay type: functional; conditions: Cavia porcellus; concentration not given here
[9] = tested on: Cavia porcellus; assay: Ability to inhibit histamine phase of antigen-induced bronchoconstriction in vivo in pulmonary function assays in which Guinea pigs were dosed orally 5 hours prior to test; assay type: functional; conditions: po
[10] = tested on: Rattus norvegicus; assay: Antiallergic activity in the rat PCA assay following oral administration 1 hour before antigen challenge. Five animals were used in this experiment.; assay type: functional
[11] = species on record: Cavia porcellus; assay: Ability to inhibit histamine-induced contractions of isolated guinea pig ileum at 10e-6 M; Not active; assay type: functional
[12] = tested on: Cavia porcellus; assay: Ability to inhibit histamine phase of platelet activating factor (PAF)-induced bronchoconstriction in vivo in pulmonary function assays in which Guinea pigs were dosed orally 5 hours prior to test; assay type: functional; conditions: po

SMILES | IC50 [1] | IC50 [2] | ED50 [3] | further results
Cc1ccnc(N2CCN(CCc3c(C)n4c5c(cc(C(O)C(C)C)cc35)CCC4)CC2)c1 (stereo unspecified) | 4.2 µM | 0.11 µM | 2.6 µmol/kg | inhibition [4]: 8%
Cc1c(CCCN2CCN(c3ccc(F)cc3)CC2)c2cccc3c2n1CCC3 | > 100 µM | 1.9 µM | – | –
Cc1ccc(N2CCN(C(=O)Cc3c(C)n4c5c(cccc35)CCC4)CC2)nc1 | 42 µM | 8.3 µM | – | –
CC(c1cc2ccccc2s1)N(O)C(N)=O (stereo unspecified) | – | – | – | ED50 [5]: inactive
CCCCCCCC1CCc2cccc3c(CCN4CCN(c5cc(C)ccn5)CC4)c(C)n1c23 (stereo unspecified) | – | – | – | inhibition at 10 µM [6]: 50%
Cc1ccnc(N2CCN(CCc3c(C)n4c5c(cc(CC6CCCCC6)cc35)CCC4)CC2)c1 | 39 µM | – | – | inhibition at 10 µM [6]: 50%
Cc1ccnc(N2CCN(CCc3c(C)n4c5c(cc(C(=O)C(C)C)cc35)CCC4)CC2)c1 | 1.9 µM | 0.037 µM | 2.9 µmol/kg | inhibition [7]: 36%
Cc1ccc(N2CCN(CCc3c(C)n4c5c(cccc35)CCC4)CC2)nc1 | > 100 µM | 0.18 µM | – | –
Cc1ccnc(N2CCN(CCc3c(C)n4c5c(cc(C)cc35)CCC4)CC2)c1 | 9.1 µM | 0.07 µM | – | –
Cc1ccnc(N2CCN(CCc3c(C)n4c5c(cc(N)cc35)CCC4)CC2)c1 | 84 µM | 0.08 µM | 2.5 µmol/kg | inhibition [8]: 64%
CC(=O)Oc1cc2c3c(c1)c(CCN1CCN(c4cc(C)ccn4)CC1)c(C)n3CCC2 | – | 0.023 µM | – | –
Cc1ccnc(N2CCN(CCc3c(C)n4c5c(cc(C(=O)/C=C/c6ccccc6)cc35)CCC4)CC2)c1 | – | 0.19 µM | – | –
Cc1ccnc(N2CCN(CCc3c(C)n4c5c(cc(C(=O)C(C)(C)C)cc35)CCC4)CC2)c1 | 5.9 µM | 0.089 µM | 3.3 µmol/kg | inhibition [4]: 22%
CCCCCCC(=O)c1cc2c3c(c1)c(CCN1CCN(c4cc(C)ccn4)CC1)c(C)n3CCC2 | 2.4 µM | 1.2 µM | – | –
Cc1c(CCN2CCN(c3ccc(F)cc3)CC2)c2cccc3c2n1CCC3 | > 100 µM | 0.076 µM | – | –
Cc1c(CCN2CCN(c3ccc(F)c(Cl)c3)CC2)c2cccc3c2n1CCC3 | > 100 µM | 0.51 µM | – | –

SMILES | IC50 [1] | IC50 [2] | ED50 [3] | further results
Cc1ccnc(N2CCN(C(=O)CCc3c(C)n4c5c(cccc35)CCC4)CC2)c1 | 20 µM | 1.4 µM | – | –
CN1CCC(=C2c3ccccc3CC(=O)c3sccc32)CC1 [KETOTIFEN] | > 100 µM | 0.0064 µM | 0.16 µmol/kg | ED50 [9]: 0.31 µmol/kg; ED50 [10]: 0.44 µmol/kg
Cc1ccnc(N2CCN(CCc3c(C)n4c5c(cc(C(=O)C6CCCCC6)cc35)CCC4)CC2)c1 | 2 µM | 0.25 µM | 2.9 µmol/kg | inhibition [4]: 68%
O=C(c1ccccc1)c1cccc(NC(=O)c2ccn3c2CS[C@@H]3c2cccnc2)c1 [TULOPAFANT] | – | – | – | IC50 [11]: Not Active; ED50 [5]: inactive; ED50 [12]: 5.5 µmol/kg
Cc1ccnc(N2CCN(CCc3c(C)n4c5c(cc(O)cc35)CCC4)CC2)c1 | 39 µM | 0.021 µM | 6 µmol/kg | –
Cc1ccnc(N2CCN(CCc3c(C)n4c5c(cc(CC(C)C)cc35)CCC4)CC2)c1 | 4.3 µM | 0.8 µM | 5.1 µmol/kg | inhibition [4]: 20%
Cc1ccnc(N2CCN(CCc3c(C)n4c5c(cccc35)CCC4)CC2)c1 | 2.6 µM | 0.032 µM | 4 µmol/kg | inhibition [4]: 0%
Cc1c(CCN2CCN(c3ccc(Br)cn3)CC2)c2cccc3c2n1CCC3 | > 100 µM | 0.99 µM | – | –
Cc1c(CCN2CCC(C(=O)c3ccc(F)cc3)CC2)c2cccc3c2n1CCC3 | > 100 µM | 0.49 µM | – | –
Cc1ccnc(N2CCN(C(=O)Cc3c(C)n4c5c(cccc35)CCC4)CC2)c1 | 9.6 µM | 5.9 µM | – | –
CCCCC1CCc2cc(O)cc3c(CCN4CCN(c5cc(C)ccn5)CC4)c(C)n1c23 (stereo unspecified) | 2 µM | 0.26 µM | 2.8 µmol/kg | ED50 [9]: 1.9 µmol/kg; ED50 [12]: 2.1 µmol/kg; ED50 [10]: 0.9 µmol/kg; inhibition [4]: 100%
Cc1ccnc(N2CCN(CCc3c(C)n4c5c(cccc35)CCC4C3CCCCC3)CC2)c1 (stereo unspecified) | 25 µM | – | – | inhibition at 10 µM [6]: 50%
Cc1c(CC(=O)N2CCN(c3ccc(F)cc3)CC2)c2cccc3c2n1CCC3 | 44 µM | 7.1 µM | – | –
CC(=O)c1cc2c3c(c1)c(CCN1CCN(c4cc(C)ccn4)CC1)c(C)n3CCC2 | 7.5 µM | 0.019 µM | 2 µmol/kg | inhibition [4]: 48%
CC(C)=Cc1cc2c3c(c1)c(CCN1CCN(c4cc(C)ccn4)CC1)c(C)n3CCC2 | 22 µM | 0.14 µM | 4.9 µmol/kg | inhibition [4]: 41%
CCCCC1CCc2cc(C(=O)C(C)C)cc3c(CCN4CCN(c5cc(C)ccn5)CC4)c(C)n1c23 (stereo unspecified) | 2 µM | 0.4 µM | 3.3 µmol/kg | inhibition [4]: 50%

The next lines start with results.

IC50 [1] | IC50 [2] | SMILES | ED50 [3] | further results
31 µM | 0.063 µM | Cc1ccnc(N2CCN(CCc3cn4c5c(cccc35)CCC4)CC2)c1 | – | –
3.3 µM | – | Cc1ccnc(N2CCN(CCc3c(-c4ccc(Cl)cc4)n4c5c(cccc35)CCC4)CC2)c1 | – | inhibition at 10 µM [6]: 6%
82 µM | – | COc1ccc(N2CCN(CCc3c(C)n4c5c(cccc35)CCC4)CC2)cc1 | – | inhibition at 10 µM [6]: 9%
6.9 µM | 0.033 µM | Cc1ccnc(N2CCN(CCc3c(C)n4c5c(cccc35)CCC4C)CC2)c1 (stereo unspecified) | 2.6 µmol/kg | inhibition [4]: 19%
> 100 µM | 0.017 µM | COc1ccc(CN(CCN(C)C)c2ccccn2)cc1 [PYRILAMINE] | – | –
32 µM | 1.8 µM | Cc1ccnc(N2CCN(CCCc3c(C)n4c5c(cccc35)CCC4)CC2)c1 | – | –
2 µM | – | Cc1ccnc(N2CCN(CCc3c(-c4ccc(F)cc4)n4c5c(cccc35)CCC4)CC2)c1 | – | inhibition at 10 µM [6]: 3%
4.8 µM | 0.98 µM | CCCCC1CCc2cccc3c(CCN4CCN(c5cc(C)ccn5)CC4)c(C)n1c23 (stereo unspecified) | 2.1 µmol/kg | inhibition [4]: 29%
6.2 µM | 0.03 µM | COc1cc2c3c(c1)c(CCN1CCN(c4cc(C)ccn4)CC1)c(C)n3CCC2 | 0.7 µmol/kg | inhibition [4]: 15%
47 µM | 0.35 µM | Cc1cccc(N2CCN(CCc3c(C)n4c5c(cccc35)CCC4)CC2)n1 | – | –
4.2 µM | – | Cc1ccnc(N2CCN(CCc3c(-c4ccccc4)n4c5c(cccc35)CCC4)CC2)c1 | – | inhibition at 10 µM [6]: 24%
2 µM | – | Cc1ccnc(N2CCN(CCc3c(-c4ccc(O)cc4)n4c5c(cccc35)CCC4)CC2)c1 | – | inhibition at 10 µM [6]: 14%
0.6 µM | – | COc1ccc(-c2c(CCN3CCN(c4cc(C)ccn4)CC3)c3cccc4c3n2CCC4)cc1 | – | inhibition at 10 µM [6]: 15%
82 µM | 0.25 µM | COc1ccccc1N1CCN(CCc2c(C)n3c4c(cccc24)CCC3)CC1 | – | –
> 100 µM | 0.086 µM | Cc1ccnc(N2CCN(CCc3c(C)n4c5c(cc(NC(=O)c6ccccc6)cc35)CCC4)CC2)c1 | 3 µmol/kg | inhibition [4]: 40%
2.8 µM | 2.4 µM | Cc1ccnc(N2CCN(CCc3c(C)n4c5c(cc(Cc6ccccc6)cc35)CCC4)CC2)c1 | – | –
2 µM | – | Cc1ccc(-c2c(CCN3CCN(c4cc(C)ccn4)CC3)c3cccc4c3n2CCC4)cc1 | – | IC50 [6]: 20 µM
> 100 µM | 0.02 µM | CN1CCCC(n2nc(Cc3ccc(Cl)cc3)c3ccccc3c2=O)CC1 (stereo unspecified) [AZELASTINE] | 3.3 µmol/kg | ED50 [10]: 7 µmol/kg
40 µM | 0.065 µM | Cc1c(CCN2CCN(c3ccccn3)CC2)c2cccc3c2n1CCC3 | – | –
1.4 µM | 0.34 µM | CCCCC1CCc2cc(OC)cc3c(CCN4CCN(c5cc(C)ccn5)CC4)c(C)n1c23 (stereo unspecified) | 0.9 µmol/kg | inhibition [4]: 50%
67 µM | – | Cc1cccnc1N1CCN(CCc2c(C)n3c4c(cccc24)CCC3)CC1 | – | inhibition at 10 µM [6]: 7%
75 µM | 0.45 µM | Cc1c(CCN2CCC(c3ccccc3)CC2)c2cccc3c2n1CCC3 | – | –
2.2 µM | 0.28 µM | Cc1ccnc(N2CCN(CCc3c(C)n4c5c(cccc35)CCC4c3ccccc3)CC2)c1 (stereo unspecified) | 2.9 µmol/kg | inhibition [4]: 17%
0.8 µM | 0.29 µM | Cc1ccnc(N2CCN(CCc3c(C)n4c5c(cc(C(=O)c6ccccc6)cc35)CCC4)CC2)c1 | – | –
> 100 µM | 0.38 µM | O=C(O)COCCN1CCN(C(c2ccccc2)c2ccc(Cl)cc2)CC1 (stereo unspecified) [CETIRIZINE] | – | –
22 µM | 2.9 µM | Cc1ccnc(N2CCN(CCc3c(Cc4ccccc4)n4c5c(cccc35)CCC4)CC2)c1 | – | –
